Measurements from paper PMC8658095, “PHA-680626 Is an Effective Inhibitor of the Interaction between Aurora-A and N-Myc” (International Journal of Molecular Sciences, 2021).
Where two headings read alike, the source gives them in different places. One block for each compound: values may come before it.

Experiments:
[1] = biological target: T1, AURKA/N-Myc complex (Homo sapiens, UniProt O14965); assay: In situ Proximity Ligation Assay of AURKA/N-Myc in U2OS MYCN cells; format: cell-based
T1 construct: endogenous in cells; host or cells: U2OS FRT/TO Flp-In; AURKA endogenous, N-Myc-tFT from a stably integrated, doxycycline-inducible construct
T1 sequence (O14965 1-403): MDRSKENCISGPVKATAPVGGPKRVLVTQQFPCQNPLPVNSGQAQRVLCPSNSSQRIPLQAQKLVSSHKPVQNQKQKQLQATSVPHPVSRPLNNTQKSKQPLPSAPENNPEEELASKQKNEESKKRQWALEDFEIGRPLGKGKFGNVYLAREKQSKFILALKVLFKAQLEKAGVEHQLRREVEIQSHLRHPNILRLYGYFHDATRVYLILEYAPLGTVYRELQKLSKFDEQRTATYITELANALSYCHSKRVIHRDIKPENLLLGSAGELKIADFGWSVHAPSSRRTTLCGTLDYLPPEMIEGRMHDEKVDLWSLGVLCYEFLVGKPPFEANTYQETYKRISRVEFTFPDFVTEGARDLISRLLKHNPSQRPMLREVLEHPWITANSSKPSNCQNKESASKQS

[2] = tested on: IMR-32 cells; assay: Cell death (PARP-1 cleavage) and morphology of IMR-32 cultures; format: cell-based; settings: IMR-32, 1 μM, 48 h
[3] = tested on: AURKA; settings: cited from earlier work
[4] = tested on: IMR-32 cells; assay: FACS analysis (PI) of cell cycle and sub-G1 DNA content; format: cell-based; settings: IMR-32, 1 μM, 48 h; DMSO about 8%
[5] = set-up: method as in PMID 25175806; settings: cited from earlier work
[6] = biological target: T2, AURKA (Homo sapiens, UniProt O14965); assay: SPR binding kinetics on immobilized AURKA; settings: 25 °C, flow rate 150 μL/min
T2 construct: the catalytic domain of human AURKA (amino acids 122–430); His-tag followed by TEV protease cleavage site (N); made in house; host or cells: bacterial culture (LB, kanamycin, IPTG induction; pETM11)
T2 sequence (O14965 122-403 limits assumed): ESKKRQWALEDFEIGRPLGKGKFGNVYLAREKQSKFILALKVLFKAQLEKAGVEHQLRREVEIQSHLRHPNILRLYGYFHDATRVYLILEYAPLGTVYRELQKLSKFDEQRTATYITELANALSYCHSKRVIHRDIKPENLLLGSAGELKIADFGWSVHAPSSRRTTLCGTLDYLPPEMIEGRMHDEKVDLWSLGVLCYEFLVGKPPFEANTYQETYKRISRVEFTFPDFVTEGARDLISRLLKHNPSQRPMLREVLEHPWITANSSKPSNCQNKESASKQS

Compound: COc1cc2c(Nc3ccc(NC(=O)c4ccccc4)cc3)ncnc2cc1OCCCN1CCOCC1 [ZM447439]
AURKA/N-Myc interaction (isPLA spots per nucleus) ([1]; U2OS MYCN, 1 μM, MG-132 4 h before fixation): no difference between control and treated cells
cell morphology ([2]; bright-field microscopy): only induced spherical mitotic shapes

AURKA/N-Myc interaction (isPLA spots per nucleus) [1]: significantly reduced
Compound: O=C(O)c1ccc(Nc2ncc3c(n2)-c2ccc(Cl)cc2C(c2c(F)cccc2F)=NC3)cc1 [MLN8054]
cells with sub-G1 DNA content [4]: ~30%
cleaved PARP-1 (cell death induction) ([2]; Western blot): a fraction of cleaved PARP-1

Compound: O=C(Nc1ccc(Nc2nccc(Nc3cc(C4CCCC4)[nH]n3)n2)cc1)Nc1cccc(C(F)(F)F)c1 [CD532]
half-life [5]: short half-life
oral bioavailability [5]: poor oral bioavailability

Koff [6]: 12.0 ± 0.09 s^−1 × 10^−3
Kon [6]: 7.8 ± 0.1 M^−1s^−1 × 10^6
Kd ([6]; koff/kon): 1.55 ± 0.03 nM
Compound: O=C(c1cccc(Cl)c1F)N1CCN(Cc2cccc(Nc3nccs3)n2)CC1 [MK8754, MK8745]
IC50 [3]: 0.6 nM
